According to ChEMBL document CHEMBL3881530, “Compounds and methods for inhibiting NHE-mediated antiport in the treatment of disorders associated with fluid retention or salt overload and gastrointestinal tract disorders” (2013):
Calls of active or inactive are those of the source. No cut-off for these calls is given here.

Legend:
[1] = Cmax in Sprague-Dawley rat at 1.3 mg/kg administered via oral gavage measured up to 4 hrs by LC/MS/MS analysis; format: ADME, organism-based; set-up: dose 1.3 mg/kg, route oral; conditions: in vivo
[2] = AUC in Sprague-Dawley rat at 1.3 mg/kg administered via oral gavage measured up to 4 hrs by LC/MS/MS analysis; format: ADME, organism-based; set-up: dose 1.3 mg/kg, time < 4 hr, route oral; conditions: in vivo
[3] = biological target: Sodium/hydrogen exchanger 3 (Rattus norvegicus, UniProt P26433); experiment: Inhibition of rat NHE-3
[4] = system: Rattus norvegicus; experiment: Antinociceptive activity in Wistar rat assessed as inhibition of partial restraint stress-induced visceral hyperalgesia at 10 mg/kg, po administered 1 hr prior to 45 to 60 mm Hg colorectal distension pressure by measuring number of abdominal contractions monitoring every 5 mins during rectal distension; format: functional, organism-based; conditions: Abdominal cavity
[5] = system: Rattus norvegicus; experiment: Increase in fecal water content in 1% psyllium diet fed Sprague-Dawley rat at 3 mg/kg administered via oral gavage measured after 16 hrs; format: functional, organism-based
[6] = system: Rattus norvegicus; experiment: Decrease in urinary sodium level in 1% psyllium diet fed Sprague-Dawley rat at 3 mg/kg administered via oral gavage measured after 16 hrs by ion chromatographic analysis; format: functional, organism-based
[7] = system: Rattus norvegicus; experiment: Increase in fecal sodium level in Sprague-Dawley rat at 3 mg/kg administered via oral gavage measured after 16 hrs by ion chromatographic analysis; format: functional, organism-based
[8] = system: Rattus norvegicus; experiment: Reduction in fecal stool form in 1% psyllium diet fed Sprague-Dawley rat at 3 mg/kg administered via oral gavage measured after 16 hrs; format: functional, organism-based
[9] = Cmax in Sprague-Dawley rat at 4.6 mg/kg administered via oral gavage measured up to 4 hrs by LC/MS/MS analysis; format: ADME, organism-based; set-up: dose 4.6 mg/kg, route oral; conditions: in vivo
[10] = AUC in Sprague-Dawley rat at 4.6 mg/kg administered via oral gavage measured up to 4 hrs by LC/MS/MS analysis; format: ADME, organism-based; set-up: time < 4 hr, dose 4.6 mg/kg, route oral; conditions: in vivo
[11] = Cmax in Sprague-Dawley rat at 2.4 mg/kg administered via oral gavage measured up to 4 hrs by LC/MS/MS analysis; format: ADME, organism-based; set-up: dose 2.4 mg/kg, route oral; conditions: in vivo
[12] = Cmax in Sprague-Dawley rat at 1.5 mg/kg administered via oral gavage measured up to 4 hrs by LC/MS/MS analysis; format: ADME, organism-based; set-up: dose 1.5 mg/kg, route oral; conditions: in vivo
[13] = AUC in Sprague-Dawley rat at 1.5 mg/kg administered via oral gavage measured up to 4 hrs by LC/MS/MS analysis; format: ADME, organism-based; set-up: time < 4 hr, dose 1.5 mg/kg, route oral; conditions: in vivo
[14] = Apparent permeability of the compound from apical to basolateral side at pH 7.4 after 3 hrs by PAMPA; format: ADME
[15] = Cmax in Sprague-Dawley rat at 21 mg/kg administered via oral gavage measured up to 4 hrs by LC/MS/MS analysis; format: ADME, organism-based; set-up: dose 21 mg/kg, route oral; conditions: in vivo
[16] = AUC in Sprague-Dawley rat at 21 mg/kg administered via oral gavage measured up to 4 hrs by LC/MS/MS analysis; format: ADME, organism-based; set-up: dose 21 mg/kg, time < 4 hr, route oral; conditions: in vivo
[17] = Cmax in Sprague-Dawley rat at 1.6 mg/kg administered via oral gavage measured up to 4 hrs by LC/MS/MS analysis; format: ADME, organism-based; set-up: dose 1.6 mg/kg, route oral; conditions: in vivo
[18] = AUC in Sprague-Dawley rat at 1.6 mg/kg administered via oral gavage measured up to 4 hrs by LC/MS/MS analysis; format: ADME, organism-based; set-up: time < 4 hr, dose 1.6 mg/kg, route oral; conditions: in vivo
[19] = biological target: T1, Sodium/hydrogen exchanger 2 (Oryctolagus cuniculus, UniProt P50482); experiment: Inhibition of rabbit NHE-2
T1 sequence (P50482 whole entry): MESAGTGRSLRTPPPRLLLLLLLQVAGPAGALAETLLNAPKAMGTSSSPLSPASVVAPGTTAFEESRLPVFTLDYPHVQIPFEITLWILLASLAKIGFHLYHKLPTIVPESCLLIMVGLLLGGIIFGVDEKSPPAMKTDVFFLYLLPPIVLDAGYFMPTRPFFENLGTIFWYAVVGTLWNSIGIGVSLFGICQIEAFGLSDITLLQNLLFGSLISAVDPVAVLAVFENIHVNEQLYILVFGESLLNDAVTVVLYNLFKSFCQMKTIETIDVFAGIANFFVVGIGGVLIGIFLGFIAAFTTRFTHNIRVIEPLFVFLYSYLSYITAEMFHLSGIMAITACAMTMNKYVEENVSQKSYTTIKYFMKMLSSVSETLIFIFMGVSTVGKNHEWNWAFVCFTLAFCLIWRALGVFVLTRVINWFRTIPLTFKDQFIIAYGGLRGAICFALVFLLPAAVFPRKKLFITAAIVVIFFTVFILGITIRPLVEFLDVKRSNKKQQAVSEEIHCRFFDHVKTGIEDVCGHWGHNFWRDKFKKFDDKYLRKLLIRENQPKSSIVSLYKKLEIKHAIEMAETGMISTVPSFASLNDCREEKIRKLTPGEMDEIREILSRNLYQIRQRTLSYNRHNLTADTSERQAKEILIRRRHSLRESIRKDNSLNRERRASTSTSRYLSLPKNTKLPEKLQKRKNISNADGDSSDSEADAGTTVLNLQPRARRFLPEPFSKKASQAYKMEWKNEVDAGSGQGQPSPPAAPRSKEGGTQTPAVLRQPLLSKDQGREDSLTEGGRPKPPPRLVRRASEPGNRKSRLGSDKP

[20] = biological target: T2, Sodium/hydrogen exchanger 3 (Homo sapiens, UniProt P48764); experiment: Inhibition of NHE-3 (unknown origin)
T2 sequence (P48764 whole entry): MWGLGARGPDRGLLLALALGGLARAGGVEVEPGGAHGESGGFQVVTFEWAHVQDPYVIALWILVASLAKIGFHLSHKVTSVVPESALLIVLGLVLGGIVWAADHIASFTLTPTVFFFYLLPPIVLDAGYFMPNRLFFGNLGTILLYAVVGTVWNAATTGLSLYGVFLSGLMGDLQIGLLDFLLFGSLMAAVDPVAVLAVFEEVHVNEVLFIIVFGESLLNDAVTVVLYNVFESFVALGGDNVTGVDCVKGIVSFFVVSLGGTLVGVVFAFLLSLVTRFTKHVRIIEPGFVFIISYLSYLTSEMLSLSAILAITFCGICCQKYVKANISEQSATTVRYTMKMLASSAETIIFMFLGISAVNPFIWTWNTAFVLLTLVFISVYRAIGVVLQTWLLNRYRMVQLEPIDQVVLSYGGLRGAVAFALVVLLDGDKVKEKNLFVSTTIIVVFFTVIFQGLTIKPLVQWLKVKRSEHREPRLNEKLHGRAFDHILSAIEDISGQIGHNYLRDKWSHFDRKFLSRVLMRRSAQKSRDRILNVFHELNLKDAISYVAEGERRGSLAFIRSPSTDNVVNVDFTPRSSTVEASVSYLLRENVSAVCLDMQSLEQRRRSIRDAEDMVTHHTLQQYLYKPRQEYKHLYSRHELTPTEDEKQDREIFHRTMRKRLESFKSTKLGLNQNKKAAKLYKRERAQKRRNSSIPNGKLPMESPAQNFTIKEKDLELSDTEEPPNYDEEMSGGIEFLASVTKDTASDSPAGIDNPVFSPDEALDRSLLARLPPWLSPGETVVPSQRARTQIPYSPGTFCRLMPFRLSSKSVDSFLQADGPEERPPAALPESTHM

[21] = biological target: Sodium/hydrogen exchanger 1 (Homo sapiens, UniProt P19634); experiment: Inhibition of NHE-1 (unknown origin)
[22] = AUC in Sprague-Dawley rat at 27 mg/kg administered via oral gavage measured up to 4 hrs by LC/MS/MS analysis; format: ADME, organism-based; set-up: time < 4 hr, dose 27 mg/kg, route oral; conditions: in vivo
[23] = Cmax in Sprague-Dawley rat at 27 mg/kg administered via oral gavage measured up to 4 hrs by LC/MS/MS analysis; format: ADME, organism-based; set-up: dose 27 mg/kg, route oral; conditions: in vivo

Sequence of Sodium/hydrogen exchanger 3 (Rattus norvegicus, UniProt P26433) (P26433 whole entry): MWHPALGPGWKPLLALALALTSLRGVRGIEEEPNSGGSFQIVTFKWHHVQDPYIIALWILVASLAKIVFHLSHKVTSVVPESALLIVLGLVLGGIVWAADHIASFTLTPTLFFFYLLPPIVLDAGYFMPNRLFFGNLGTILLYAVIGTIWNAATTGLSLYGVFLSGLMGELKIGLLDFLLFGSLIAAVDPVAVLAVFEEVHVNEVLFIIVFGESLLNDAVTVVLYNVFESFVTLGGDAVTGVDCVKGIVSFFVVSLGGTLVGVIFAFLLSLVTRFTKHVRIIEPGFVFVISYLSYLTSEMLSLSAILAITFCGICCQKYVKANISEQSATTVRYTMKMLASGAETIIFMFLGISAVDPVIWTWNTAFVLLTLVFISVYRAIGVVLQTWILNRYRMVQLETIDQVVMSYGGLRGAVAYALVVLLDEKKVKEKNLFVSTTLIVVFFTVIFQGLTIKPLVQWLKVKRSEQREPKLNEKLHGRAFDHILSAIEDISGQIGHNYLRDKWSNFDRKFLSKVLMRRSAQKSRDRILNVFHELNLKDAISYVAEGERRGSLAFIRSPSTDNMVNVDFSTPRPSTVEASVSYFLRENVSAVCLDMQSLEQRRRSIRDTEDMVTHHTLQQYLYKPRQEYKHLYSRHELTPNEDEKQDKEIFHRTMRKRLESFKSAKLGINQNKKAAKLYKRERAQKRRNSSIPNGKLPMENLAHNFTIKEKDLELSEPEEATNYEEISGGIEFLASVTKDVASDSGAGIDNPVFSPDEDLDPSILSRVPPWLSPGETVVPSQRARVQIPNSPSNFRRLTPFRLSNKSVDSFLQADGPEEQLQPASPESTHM
Sequence of Sodium/hydrogen exchanger 1 (P19634 whole entry): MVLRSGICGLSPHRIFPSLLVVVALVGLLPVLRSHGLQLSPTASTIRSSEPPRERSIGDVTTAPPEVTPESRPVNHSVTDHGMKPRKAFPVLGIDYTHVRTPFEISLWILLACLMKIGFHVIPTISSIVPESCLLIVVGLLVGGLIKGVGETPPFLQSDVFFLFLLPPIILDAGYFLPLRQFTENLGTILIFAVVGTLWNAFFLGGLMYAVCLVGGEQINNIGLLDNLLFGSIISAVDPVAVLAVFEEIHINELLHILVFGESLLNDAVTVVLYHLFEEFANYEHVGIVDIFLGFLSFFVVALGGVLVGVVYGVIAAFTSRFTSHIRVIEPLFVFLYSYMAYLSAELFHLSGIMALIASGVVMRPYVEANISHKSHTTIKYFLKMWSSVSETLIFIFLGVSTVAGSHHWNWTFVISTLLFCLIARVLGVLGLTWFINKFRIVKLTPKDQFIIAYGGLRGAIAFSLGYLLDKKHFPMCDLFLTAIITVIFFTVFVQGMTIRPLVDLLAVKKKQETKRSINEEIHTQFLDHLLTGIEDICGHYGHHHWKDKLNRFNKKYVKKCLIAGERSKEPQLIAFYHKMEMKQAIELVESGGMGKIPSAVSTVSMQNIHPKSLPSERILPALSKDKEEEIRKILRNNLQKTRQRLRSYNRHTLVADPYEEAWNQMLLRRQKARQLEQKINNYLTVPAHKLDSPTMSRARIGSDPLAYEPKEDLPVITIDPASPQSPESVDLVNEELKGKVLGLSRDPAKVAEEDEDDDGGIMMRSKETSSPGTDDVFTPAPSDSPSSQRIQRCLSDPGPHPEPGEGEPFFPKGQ

CN1Cc2c(Cl)cc(Cl)cc2C(c2cccc(NS(=O)(=O)NCCP(=O)(O)O)c2)C1 (stereo not drawn)
Cmax [1]: 11 ng/mL | AUC at 4 h [2]: 56 ng·h/mL

N=C(N)NC(=O)c1cnn(-c2cccc3ncccc23)c1C1CC1 [ZONIPORIDE]
IC50 [3]: > 500 µM

CN1Cc2c(Cl)cc(Cl)cc2C(c2cccc(S(=O)(=O)NCCOCCOCCOCCNC(=O)C(O)C(O)C(=O)NCCOCCOCCOCCNS(=O)(=O)c3cccc(C4CN(C)Cc5c(Cl)cc(Cl)cc54)c3)c2)C1 (single isomer, unassigned)
inhibition [4]: Active | Activity [5]: Active | Activity [6]: Active | Activity [7]: Active | Activity [8]: Active

C/C(=C\c1cc(F)c(Oc2ccc(S(=O)(=O)NCc3ccc(CP(=O)(O)O)cc3)cc2)c(F)c1)C(=O)N=C(N)N
Cmax [9]: 14 ng/mL | AUC at 4 h [10]: 9 ng·h/mL

N=C(N)N1CCN(c2cccc(-c3nc(N=C(N)N)nc4ccc(Cl)cc34)c2)CC1
Cmax [11]: 2 ng/mL

C/C(=C\c1cc(F)c(Oc2ccc(S(=O)(=O)NCCOCCOCCOCCNC(=O)[C@H](O)[C@@H](O)C(=O)NCCOCCOCCOCCNS(=O)(=O)c3ccc(Oc4c(F)cc(/C=C(\C)C(=O)N=C(N)N)cc4F)cc3)cc2)c(F)c1)C(=O)N=C(N)N
Cmax [12]: < 2.7 ng/mL | AUC at 4 h [13]: < 4.4 ng·h/mL

NC(N)=Nc1nc(-c2cccc(N3CCN(CCCC(=O)O)CC3)c2)c2cc(Cl)ccc2n1.O=C(O)C(F)(F)F
Papp at 3 h [14]: 0.4 ×10⁻⁶ cm/s

CN1Cc2c(Cl)cc(Cl)cc2C(c2cccc(S(=O)(=O)NCCOCCOCCOCCNC(=O)Nc3ccc(NC(=O)NCCOCCOCCOCCNS(=O)(=O)c4cccc([C@@H]5CN(C)Cc6c(Cl)cc(Cl)cc65)c4)cc3)c2)C1 (mixture of isomers)
Cmax [15]: < 2 ng/mL | AUC at 4 h [16]: < 2 ng·h/mL

CN1Cc2c(Cl)cc(Cl)cc2C(c2cccc(S(=O)(=O)NCCN(CCNS(=O)(=O)c3cccc(C4CN(C)Cc5c(Cl)cc(Cl)cc54)c3)CCNS(=O)(=O)c3cccc(C4CN(C)Cc5c(Cl)cc(Cl)cc54)c3)c2)C1 (stereo not drawn)
Cmax [17]: 71 ng/mL | AUC at 4 h [18]: 159 ng·h/mL

C/C(=C\c1cc(C)ccc1/C=C(\C)C(=O)NC(=N)N)C(=O)N=C(N)N
IC50 [19]: 80 µM | IC50 [20]: 0.02 µM | IC50 [21]: 3.6 µM

CN1Cc2c(Cl)cc(Cl)cc2[C@H](c2ccc(S(=O)(=O)NCCOCCOCCOCCNC(=O)C(O)C(O)C(=O)NCCOCCOCCOCCNS(=O)(=O)c3ccc([C@@H]4CN(C)Cc5c(Cl)cc(Cl)cc54)cc3)cc2)C1 (single isomer, unassigned)
AUC at 4 h [22]: < 5.3 ng·h/mL | Cmax [23]: < 3.5 ng/mL
